Experimental data: patent EP0427843B1, “SPECIFIC INHIBITOR FOR RETROVIRUS REVERSE TRANSCRIPTASE, AND ITS APPLICATION AS A MEDICAMENT” (BLOUGH, Herbert A., Dr., priority 1989, dated 1990)
Entries after “also recorded” stand apart in the source; their conditions may differ. Read-outs that look alike come from different tables or passages of the source.

Tests used:
HIV-RT = target: T1, HIV-RT (Human immunodeficiency virus type 1 group M subtype B, UniProt P03366); format: biochemical; conditions: for effet inhibiteur sur la HIV1-RT: qualitative, autoradiogram, aurothiopropanol 0 à 2 mM (Figure 7), AZT 0,1 »M à 1 mM (Figure 8)
T1 construct: Transcriptase inverse: l'enzyme active du point de vue enzymatique, purifiée, clonée, a été préparée dans Escherichia coli; made in house; host or cells: Escherichia coli
Source text: (§1) Transcriptase inverse: l'enzyme active du point de vue enzymatique, purifiée, clonée, a été préparée dans Escherichia coli à l'aide de la technique précédemment décrite par Hizi A., McGill C., Hugues G., Proc. Natl. Acad. Sci. USA 85, 1218-1222 (1988). Le dosage de la R.T. a été effectuée à l'aide de matrice d'ADN (au hasard et avec des séquences HIV) et de primer(s) marqué(s) (brins d'initiation) par radioactivité. Après formation de complexes entre la matrice d'ADN et les primers, la R.T. a été ajoutée et incubée. Diverses concentrations d'inhibiteur ont été ajoutées soit avant soie après que le, ou les complexes, aient été formés. L'initiation et l'élongation de la chaîne ont été étudiées à l'aide de P.A.G.E. à 20% [Shane D.L., Goodman M.F., Echols N.A., Nucleic Acids Res. 16, 1218-1222 (1988] et les produits analysés par autoradiographie. Différentes matrices et conditions ont été utilisées pour distinguer ces fonctions. En outre, de la R.T. disponible dans le commerce provenant du virus de myéloblastose aviaire a été également utilisée.
(§2) Le dosage de l'effet des inhibiteurs sur la R.T. était le suivant: • A) On prépare un mélange réactionnel de […] contenant: • . ADN matrice 10⁻⁸M • . ADN primer 4 x 10⁻¹⁰M/ADN primer 5' [³²P] • . 2 »l de tampon HIV-RT ([10x] (500 mM Tris-HCl • . pH 7,8; 60 mM MgCl₂; 10 mM dithiothréitol; 500 mM KCl); et • . de l'eau bidistillée pendant […] à 37°C. • B) On ajoute 1 unité de HIV-RT (une unité correspond à l'activité enzymatique qui incorpore 1 nmol de [³H] TMP en produit insoluble dans l'acide en 10 mn à 37°C avec du poly(A)-(dT)₁₅ comme substrat) pendant 10 min à 37°C. • C) On ajoute un mélange de désoxy nucléotide triphosphates (dXTPs) contenant 0,25 mM de chaque dXTP pour un volume de mélange final de 20 »l pendant 5 minutes à 37°C. • D) Pour tester le ou les inhibiteurs, diverses concentrations de ces produits (sous un volume constant) sont ajoutées (selon Etape B) au mélange des dXTPs. Le mélange réactionnel est incubé à 37°C pendant […]. • E) On fait cesser la réaction par de l'EDTA 10 nM dans le formamide à 90%. • F) Des échantillons sont chauffés à 90°C pendant 5 mn et les produits séparés par électrophorèse sur gels de Polyacrylamide à 20% en présence d'urée. • G) Les variations dans l'élongation, la synthèse, etc... sont détectées par autoradiographie et testées par comparaison avec des "témoins" sans inhibiteur.
Le mélange est incubé pendant 5 mn à 37°C. • dans le cas (c) l'enzyme, l'hybride primer-matrice et 2 des 4 désoxy-ribonucléotides sont ajoutés et incubés pendant 5 mn à 37°C.

AMV-RT = experiment: AMV reverse transcriptase inhibition, primer extension, PAGE and autoradiography; format: biochemical, virus de myéloblastose aviaire; conditions: for effet sur la R.T. (AMV): qualitative
Source text: as §1, §2

[1] = tested on: glycosylation de gp120 ou gp41; experiment: Effect on viral glycoprotein synthesis (glycosylation) in infected cells; format: cell-based, HIV-1; conditions: for minimal effective concentration: Human immunodeficiency virus 1, read-out: concentration efficace sur la glycosylation
Source text: Effets de médicaments sur la synthèse de glycoprotéines: des cellules CEM ou MT-4 ont été infectées par HIV-1; 4 heures après l'infection, une moitié des cellules a été marquées avec [2³H]Man ou [6³H]GlcNAc à 2,5-5,9 »Ci. Les milieux ont été changés et de l'inhibiteur frais (potentiel) et 2,5 »Ci (ou 5 »Ci) de l'isotope approprié ont été ajoutés. Les cellules ont été lysées à trois et sept jours après l'infection et les lysats cellulaires ont été clarifiées par centrifugation à 12 000 g; qp120 et gp41 ont été l'une et l'autre isolées par immunoprécipitation sur colonnes et les produits, analysés sur gels de polyacrylamide à 12% et fluorographie [Kumarasamy R & Blough H.A., Biochem. Biophys. Res. Commun. 109, 1108-1115 (1982)]. Les virus ont été récoltés et purifiés par centrifugation à vitesse contrôlée sur gradients préformés de citrate de sodium ou métrazamide à 5-40%, et analysés de façon similaire.

[2] = Cytotoxicity (cell doubling time, trypan blue exclusion); format: cell-based; conditions: human, alex and mt-4 cells; cytotoxic at concentrations exceeding the value; read-out: concentrations cytotoxiques
Source text: (§3) Il a également été montré que les composés de l'invention sont moins toxiques que leurs analogues de base, en mesurant, à l'aide du microscope photonique, le temps de duplication cellulaire et l'exclusion du bleu trypan.

cellules ALEX et MT-4 = experiment: as above; format: cell-based
Source text: as §3

[3] = target: T2, DNA polymérase alpha de placenta humain (Homo sapiens, UniProt P09884); experiment: Effect on human DNA polymerase alpha; format: biochemical
T2 construct: la DNA polymérase alpha de placenta humain; tissue Dr Olga Lavrik, Novosibirsk (gift); host or cells: human placenta
T2 sequence (P09884 whole entry): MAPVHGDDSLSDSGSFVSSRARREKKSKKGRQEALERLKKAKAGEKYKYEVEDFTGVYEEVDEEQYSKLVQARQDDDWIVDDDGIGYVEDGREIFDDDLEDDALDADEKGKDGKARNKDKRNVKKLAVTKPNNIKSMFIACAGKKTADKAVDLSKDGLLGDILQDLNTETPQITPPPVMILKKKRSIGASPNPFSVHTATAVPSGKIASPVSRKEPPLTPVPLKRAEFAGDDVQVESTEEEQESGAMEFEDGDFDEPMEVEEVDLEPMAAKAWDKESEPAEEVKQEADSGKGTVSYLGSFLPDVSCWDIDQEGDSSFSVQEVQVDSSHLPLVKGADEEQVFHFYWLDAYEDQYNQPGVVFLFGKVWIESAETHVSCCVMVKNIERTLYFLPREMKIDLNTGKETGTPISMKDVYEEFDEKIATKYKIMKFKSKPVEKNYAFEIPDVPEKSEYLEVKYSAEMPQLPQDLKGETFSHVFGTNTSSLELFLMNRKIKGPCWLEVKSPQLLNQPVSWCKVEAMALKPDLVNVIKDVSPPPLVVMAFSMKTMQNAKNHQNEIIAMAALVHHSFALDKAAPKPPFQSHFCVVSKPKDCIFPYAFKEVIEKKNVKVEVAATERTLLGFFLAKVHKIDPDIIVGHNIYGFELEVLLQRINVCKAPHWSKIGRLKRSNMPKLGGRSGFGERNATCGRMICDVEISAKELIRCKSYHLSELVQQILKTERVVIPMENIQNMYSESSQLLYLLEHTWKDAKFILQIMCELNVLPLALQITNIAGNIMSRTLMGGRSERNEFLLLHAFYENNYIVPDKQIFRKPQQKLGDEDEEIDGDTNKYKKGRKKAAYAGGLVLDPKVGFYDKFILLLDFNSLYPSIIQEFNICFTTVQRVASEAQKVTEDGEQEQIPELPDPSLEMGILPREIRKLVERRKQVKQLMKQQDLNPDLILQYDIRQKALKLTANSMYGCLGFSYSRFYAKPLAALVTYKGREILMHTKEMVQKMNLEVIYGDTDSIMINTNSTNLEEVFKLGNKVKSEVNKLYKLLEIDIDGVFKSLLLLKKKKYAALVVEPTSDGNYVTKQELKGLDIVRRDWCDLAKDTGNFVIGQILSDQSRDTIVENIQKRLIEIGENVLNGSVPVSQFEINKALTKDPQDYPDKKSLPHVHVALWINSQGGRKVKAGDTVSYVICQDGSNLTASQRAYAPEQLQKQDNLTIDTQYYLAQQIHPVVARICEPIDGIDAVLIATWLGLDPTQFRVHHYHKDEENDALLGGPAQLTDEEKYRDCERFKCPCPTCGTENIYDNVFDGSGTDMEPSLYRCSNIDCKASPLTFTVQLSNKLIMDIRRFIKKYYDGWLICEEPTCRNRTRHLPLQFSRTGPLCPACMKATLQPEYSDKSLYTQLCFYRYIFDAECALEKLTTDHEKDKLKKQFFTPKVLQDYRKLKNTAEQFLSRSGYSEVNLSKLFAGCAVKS
T2 sequence (Q14181 whole entry partner): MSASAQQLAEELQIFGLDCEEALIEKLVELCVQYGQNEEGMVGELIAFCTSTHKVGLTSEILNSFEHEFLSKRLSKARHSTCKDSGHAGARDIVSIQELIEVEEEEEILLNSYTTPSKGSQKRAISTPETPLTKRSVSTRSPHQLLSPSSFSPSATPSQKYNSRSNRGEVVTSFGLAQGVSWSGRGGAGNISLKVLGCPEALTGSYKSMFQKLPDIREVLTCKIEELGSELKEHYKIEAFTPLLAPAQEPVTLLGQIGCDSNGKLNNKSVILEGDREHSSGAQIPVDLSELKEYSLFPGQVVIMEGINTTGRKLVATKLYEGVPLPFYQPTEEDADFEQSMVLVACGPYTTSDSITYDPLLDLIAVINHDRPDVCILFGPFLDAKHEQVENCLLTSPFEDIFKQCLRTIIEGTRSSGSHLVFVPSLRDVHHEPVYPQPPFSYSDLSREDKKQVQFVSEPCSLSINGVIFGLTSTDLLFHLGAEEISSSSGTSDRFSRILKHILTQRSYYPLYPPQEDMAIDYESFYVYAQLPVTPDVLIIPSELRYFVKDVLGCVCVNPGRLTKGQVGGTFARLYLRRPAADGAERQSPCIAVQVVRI
T2 sequence (P49642 whole entry partner): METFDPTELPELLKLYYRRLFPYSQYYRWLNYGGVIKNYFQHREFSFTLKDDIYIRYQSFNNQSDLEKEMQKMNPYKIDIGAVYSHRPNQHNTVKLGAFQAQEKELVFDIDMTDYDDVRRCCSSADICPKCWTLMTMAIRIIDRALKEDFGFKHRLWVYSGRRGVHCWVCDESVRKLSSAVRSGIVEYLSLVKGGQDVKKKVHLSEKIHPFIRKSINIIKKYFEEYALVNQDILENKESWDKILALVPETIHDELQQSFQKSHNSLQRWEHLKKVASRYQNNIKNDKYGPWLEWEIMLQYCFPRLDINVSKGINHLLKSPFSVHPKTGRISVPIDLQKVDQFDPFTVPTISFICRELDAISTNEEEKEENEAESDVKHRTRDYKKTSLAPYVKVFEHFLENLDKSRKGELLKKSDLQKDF
T2 sequence (P49643 whole entry partner): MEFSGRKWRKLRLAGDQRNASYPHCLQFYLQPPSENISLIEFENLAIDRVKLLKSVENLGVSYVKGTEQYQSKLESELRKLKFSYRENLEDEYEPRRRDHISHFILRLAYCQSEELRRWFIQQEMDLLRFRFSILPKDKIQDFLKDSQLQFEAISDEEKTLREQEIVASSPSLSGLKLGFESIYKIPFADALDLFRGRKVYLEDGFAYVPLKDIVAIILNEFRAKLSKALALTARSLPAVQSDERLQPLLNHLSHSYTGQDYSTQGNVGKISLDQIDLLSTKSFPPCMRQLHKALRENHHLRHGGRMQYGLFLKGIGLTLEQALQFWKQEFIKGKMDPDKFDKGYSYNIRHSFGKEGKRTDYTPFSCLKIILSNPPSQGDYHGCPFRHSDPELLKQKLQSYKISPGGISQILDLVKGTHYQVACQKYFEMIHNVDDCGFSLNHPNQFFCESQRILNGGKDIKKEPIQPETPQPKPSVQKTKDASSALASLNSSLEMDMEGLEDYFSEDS

[4] = target: T3, DNA polymérase alpha de foie de rat (Rattus norvegicus, UniProt O89042); experiment: Effect on rat DNA polymerase alpha; format: biochemical; conditions: partially purified enzyme; sensitive only above the value
T3 construct: la DNA polymérase alpha de foie de rat partiellement purifiée; tissue Dr A M de Recondo, Villejuif (gift); host or cells: rat liver
T3 sequence (O89042 1-1451): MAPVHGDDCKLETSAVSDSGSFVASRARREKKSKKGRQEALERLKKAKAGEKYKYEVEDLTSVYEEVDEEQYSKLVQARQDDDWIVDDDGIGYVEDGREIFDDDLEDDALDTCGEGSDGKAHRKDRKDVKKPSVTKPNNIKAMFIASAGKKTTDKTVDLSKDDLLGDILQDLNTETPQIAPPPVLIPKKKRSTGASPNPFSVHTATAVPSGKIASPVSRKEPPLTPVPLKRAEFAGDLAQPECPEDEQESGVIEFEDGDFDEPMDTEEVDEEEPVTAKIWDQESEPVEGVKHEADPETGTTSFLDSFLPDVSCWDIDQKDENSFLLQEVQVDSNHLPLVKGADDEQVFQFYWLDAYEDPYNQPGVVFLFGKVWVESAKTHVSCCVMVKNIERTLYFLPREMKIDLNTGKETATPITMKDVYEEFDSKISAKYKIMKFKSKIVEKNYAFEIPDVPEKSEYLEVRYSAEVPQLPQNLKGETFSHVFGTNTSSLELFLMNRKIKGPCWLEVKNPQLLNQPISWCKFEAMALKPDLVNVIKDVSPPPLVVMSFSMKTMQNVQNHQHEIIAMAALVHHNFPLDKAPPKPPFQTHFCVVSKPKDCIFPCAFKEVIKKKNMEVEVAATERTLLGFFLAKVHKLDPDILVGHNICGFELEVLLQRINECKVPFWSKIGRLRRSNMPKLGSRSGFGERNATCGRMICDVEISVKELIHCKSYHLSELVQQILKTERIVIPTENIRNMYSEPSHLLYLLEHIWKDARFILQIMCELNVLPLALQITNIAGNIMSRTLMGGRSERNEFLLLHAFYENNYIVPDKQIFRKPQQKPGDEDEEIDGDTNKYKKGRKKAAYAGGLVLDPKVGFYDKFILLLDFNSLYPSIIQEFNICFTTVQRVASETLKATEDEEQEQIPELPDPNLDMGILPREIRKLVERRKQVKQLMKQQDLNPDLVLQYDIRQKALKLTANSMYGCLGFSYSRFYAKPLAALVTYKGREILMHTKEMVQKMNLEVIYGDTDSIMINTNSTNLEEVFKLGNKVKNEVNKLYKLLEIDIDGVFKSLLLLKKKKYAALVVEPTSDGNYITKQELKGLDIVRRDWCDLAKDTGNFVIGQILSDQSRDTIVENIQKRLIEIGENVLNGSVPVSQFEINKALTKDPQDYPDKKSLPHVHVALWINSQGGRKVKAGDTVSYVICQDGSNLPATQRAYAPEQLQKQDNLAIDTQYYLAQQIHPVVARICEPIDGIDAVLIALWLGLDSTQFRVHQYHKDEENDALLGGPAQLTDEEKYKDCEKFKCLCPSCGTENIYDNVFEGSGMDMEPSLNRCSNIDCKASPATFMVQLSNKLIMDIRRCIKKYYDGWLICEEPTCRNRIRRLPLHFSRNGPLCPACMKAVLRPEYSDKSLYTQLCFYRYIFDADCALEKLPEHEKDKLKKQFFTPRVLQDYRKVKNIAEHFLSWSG

[5] = target: T4, DNA polymérase I de Escherichia coli (Escherichia coli, UniProt P00582); experiment: Effect on E. coli DNA polymerase I; format: biochemical
T4 construct: purchased BRL
T4 sequence (P00582 whole entry): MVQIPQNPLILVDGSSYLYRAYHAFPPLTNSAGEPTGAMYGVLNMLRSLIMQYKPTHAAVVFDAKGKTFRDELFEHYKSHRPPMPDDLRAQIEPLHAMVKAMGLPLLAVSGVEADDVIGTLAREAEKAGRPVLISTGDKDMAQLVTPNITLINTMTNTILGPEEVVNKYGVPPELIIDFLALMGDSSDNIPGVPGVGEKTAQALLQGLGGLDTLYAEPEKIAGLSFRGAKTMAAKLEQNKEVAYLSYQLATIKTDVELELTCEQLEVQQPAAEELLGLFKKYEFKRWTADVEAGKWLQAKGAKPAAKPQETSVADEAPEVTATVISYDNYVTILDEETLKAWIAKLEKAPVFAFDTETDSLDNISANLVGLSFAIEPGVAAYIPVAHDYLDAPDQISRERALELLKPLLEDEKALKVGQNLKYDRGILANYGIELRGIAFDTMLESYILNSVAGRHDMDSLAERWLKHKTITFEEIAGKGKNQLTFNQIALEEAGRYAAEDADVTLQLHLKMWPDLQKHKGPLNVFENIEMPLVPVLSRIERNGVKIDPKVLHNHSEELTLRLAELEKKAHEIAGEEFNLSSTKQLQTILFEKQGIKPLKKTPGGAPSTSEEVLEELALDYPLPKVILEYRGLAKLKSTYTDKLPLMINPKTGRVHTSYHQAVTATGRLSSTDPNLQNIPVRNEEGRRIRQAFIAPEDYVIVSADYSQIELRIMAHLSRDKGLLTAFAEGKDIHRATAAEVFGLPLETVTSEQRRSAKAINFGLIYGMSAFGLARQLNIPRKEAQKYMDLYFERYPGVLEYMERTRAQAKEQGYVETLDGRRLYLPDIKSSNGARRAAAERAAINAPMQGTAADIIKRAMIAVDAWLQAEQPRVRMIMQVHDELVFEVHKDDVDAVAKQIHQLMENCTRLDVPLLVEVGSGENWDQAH

[6] = target: association enzyme-matrice (HIV1-RT / hybride primer-matrice) (Human immunodeficiency virus type 1 group M subtype B, UniProt P03366); conditions: enzyme 0,15 nM à 1nM; aurothioglucose 0,1 »M à 100 »M
Source text: On aussi effectué la filtration de l'enzyme et de l'hybride primeur-matrice en présence de concentration croissante de l'aurothioglucose. Les conditions expérimentales sont celles décrites précédemment.

## aurothiopropanol
HIV-RT
  effet inhibiteur sur la HIV1-RT: inhibition; also recorded: effet inhibiteur

## OC[C@H]1S[C@@H](O)[C@H](O)[C@@H](O)[C@@H]1O [5-thioglucose, 5-bêta-D-thioglucose]
AMV-RT
  effet sur la R.T. (AMV): n'ont pas présenté d'effet
[1]
  activité à l'encontre de la glycosylation de gp120 ou gp41: actifs
  minimal effective concentration: ~0.0035 µM
HIV-RT
  effet inhibiteur sur la HIV1-RT: n'ont pas présenté d'effet
HIV-RT; listed as 5-bêta-D-thioglucose
  effet inhibiteur sur la HIV1-RT: aucun effet
[2]
  MCC: > 2 mM
Cellules ALEX et MT-4
  toxicité vis-à-vis des cellules: trop toxiques

## OC[C@H]1O[C@@H]([S][Au])[C@H](O)[C@@H](O)[C@@H]1O [1-aurothioglucose, 1-bêta-D-aurothioglucose]
[3]; in vitro
  activité inhibitrice sur les DNA polymèrases humaines: activité inhibitrice faible
[3]; insensitive at concentrations lower than or equal to the value
  concentration en drogue à laquelle la polymérase est sensible: > 1 mM
AMV-RT; Figure 5, lane 2, added after polymerisation of six nucleotides
  effet sur l'élongation des chaînes d'ADN par l'AMV-RT: inhibition de l'élongation de la chaîne
AMV-RT; compared with HIV-RT, Figure 2
  concentrations nécessaires pour bloquer AMV-RT: concentrations supérieures
[4]
  concentration en aurothioglucose à laquelle la polymérase est sensible: > 100 µM
[5]; Figure 6, autoradiogram
  inhibition de la DNA-polymérase-1 d'Escherichia Coli: inhibition
[5]; sensitive above the value
  concentration en aurothioglucose à laquelle la polymérase est sensible: > 50 µM
HIV-RT; RNA templates compared with DNA templates, Figure 3
  inhibition en utilisant des matrices d'ARN: résultats comparables
HIV-RT; cases (b) and (c) compared
  sensibilité de l'enzyme complexée à la matrice (b) et en phase d'élongation (c): la même sensibilité
HIV-RT; combined with zidovudine (AZT)
  effets combinés de la zidovudine (AZT) et de l'aurothioglucose: additifs et qu'il existe une action synergique
HIV-RT; complexe HIV-R.T.-Substrat à 40 nm, Figure 1
  quantité efficace pour bloquer le complexe HIV-R.T.-Substrat: 3 »m
HIV-RT; free enzyme, case (a), compared with cases (b) and (c)
  diminution de la constante d'inhibition (Ki): 33%
HIV-RT; qualitative comparison
  activité par rapport à l'AZT triphosphate: considérablement plus actif
[6]
  association enzyme-matrice: affaiblie

## Cc1cn([C@H]2C[C@H](N=[N+]=[N-])[C@@H](COP(=O)(O)OP(=O)(O)OP(=O)(O)O)O2)c(=O)[nH]c1=O [AZT phosphorylé, 3'-Azido-DTTP, reference compound]
HIV-RT
  effet inhibiteur sur la HIV1-RT: inhibition

## OC[C@H]1O[C@@H](S)[C@H](O)[C@@H](O)[C@@H]1O [1-thioglucose, 1-bêta-D-thioglucose]
AMV-RT
  effet sur la R.T. (AMV): n'ont pas présenté d'effet
[1]
  activité à l'encontre de la glycosylation de gp120 ou gp41: actifs
  minimal effective concentration: ~0.0035 µM
HIV-RT
  effet inhibiteur sur la HIV1-RT: n'ont pas présenté d'effet
HIV-RT; listed as 1-bêta-D-thioglucose
  effet inhibiteur sur la HIV1-RT: aucun effet
[2]
  MCC: > 2 mM
Cellules ALEX et MT-4
  toxicité vis-à-vis des cellules: trop toxiques
